Source: patent US9266839B2, “Trifluoromethyl pyrazolyl guanidine F1F0-ATPase inhibitors and therapeutic uses thereof” (Lycera Corporation, priority 2013, dated 2016)

Assays:
Cytochrome P450 2D6 = Cytochrome P450 2D6 (Homo sapiens (Human), UniProt P10635); experiment: Inhibition of Cytochrome P450 2D6 in human liver microsomes; type: in vitro ADME; settings: 30 minutes incubation with test compound, substrate dextromethorphan 10 μM, read-out: CYP2D6 IC50
Description: Master solutions were prepared containing human liver microsomes (Gibco, 0.2 mg/mL) and MgCl2 (5 mM) in potassium phosphate buffer (10 mM). To aliquots (169 μL) of the microsome solution was added test compound in acetonitrile (1 μL) and DMSO (1 μL) to provide final test compound concentrations of 0, 0.005, 0.05, 0.25, 1, 5, 10, and 25 μM.
NADPH (10 mM) in ultra-pure water (20 μL) was added, and this mixture was incubated at 37° C. for 30 minutes. The enzyme reaction then was initiated by the addition of enzyme substrate (dextromethorphan) dissolved in 1 μL of acetonitrile and 9 μL of ultra-pure water. The final substrate concentration was 10 μM.
After 20 minutes, the incubation mixture was diluted with 3 volumes of cold methanol containing imipramine (200 nM), labetalol (200 nM), and ketoprofen (2 μM) as internal standards. Samples were centrifuged at 16,000 g for 10 minutes, then an aliquot of the supernatant (200 μL) was removed and analyzed by LC/MS/MS.
LC/MS/MS analyses were performed in duplicate using a Shimadzu HPLC and an API 4000 mass spectrometer. Liquid chromatography employed a Phenomenex C18, 5 μm, 50×2 mm column fitted with a guard column. Solvent A was acetonitrile containing 0.1% v/v formic acid. Solvent B was water containing 0.1% v/v formic acid. […]
The formation of metabolites was evaluated by peak area, and data were analyzed using Prism 5.0 software (GraphPad). […]

[1] = Cytotoxicity in Ramos cells; type: cell-based; settings: human, Ramos cells; mean of thirteen independent experiments; compound dissolved in dimethylsulfoxide; read-out: mean EC50 for cytotoxicity towards Ramos cells
Description: (§1) Compounds in Table 5 below were tested for activity against F1F0-ATPase by measuring the ability of the compounds to inhibit ATP synthesis. In addition, the compounds were assessed for cytotoxicity in Ramos cells. Inhibition of F1F0-ATPase activity in synthesizing ATP and cytotoxicity in Ramos cells were measured according to the procedures described in K. M. Johnson et al. Chemistry & Biology 2005, 12, 485-496.
(§2) The activity of compound 3-chloro-N-(((3-chloro-5-fluorophenyl)amino)((5-(trifluoromethyl)-1H-pyrazol-3-yl)amino)methylene)benzamide towards F1F0-ATPase and Ramos cells was evaluated by performing multiple times the assay procedures described in Part I. In particular, activity against F1F0-ATPase was evaluated by measuring the ability of the compound to inhibit ATP synthesis in twelve independent experiments. Cytotoxicity towards Ramos cells was measured in thirteen independent experiments. Consistent with the procedure in Part I, the compound was dissolved in dimethylsulfoxide to form a solution that was applied to F1F0-ATPase or Ramos cells, and the assays were performed according to procedures described in K. M. Johnson et al. Chemistry & Biology 2005, 12, 485-496.
(§3) Similarly, EC50 values (for cytotoxicity towards Ramos cells) from multiple replications of the experimental procedure were averaged. The mean EC50 value for 3-chloro-N-(((3-chloro-5-fluorophenyl)amino)((5-(trifluoromethyl)-1H-pyrazol-3-yl)amino)methylene)benzamide for cytotoxicity towards Ramos cells was determined to be 59±6 nM.

Ramos cells = experiment: Cytotoxicity in Ramos cells; type: cell-based; settings: Homo sapiens; cytotoxicity in Ramos cells; read-out: Ramos Cell EC50
Description: as §1, §2, §3

Sequence of Cytochrome P450 2D6 (P10635 whole entry): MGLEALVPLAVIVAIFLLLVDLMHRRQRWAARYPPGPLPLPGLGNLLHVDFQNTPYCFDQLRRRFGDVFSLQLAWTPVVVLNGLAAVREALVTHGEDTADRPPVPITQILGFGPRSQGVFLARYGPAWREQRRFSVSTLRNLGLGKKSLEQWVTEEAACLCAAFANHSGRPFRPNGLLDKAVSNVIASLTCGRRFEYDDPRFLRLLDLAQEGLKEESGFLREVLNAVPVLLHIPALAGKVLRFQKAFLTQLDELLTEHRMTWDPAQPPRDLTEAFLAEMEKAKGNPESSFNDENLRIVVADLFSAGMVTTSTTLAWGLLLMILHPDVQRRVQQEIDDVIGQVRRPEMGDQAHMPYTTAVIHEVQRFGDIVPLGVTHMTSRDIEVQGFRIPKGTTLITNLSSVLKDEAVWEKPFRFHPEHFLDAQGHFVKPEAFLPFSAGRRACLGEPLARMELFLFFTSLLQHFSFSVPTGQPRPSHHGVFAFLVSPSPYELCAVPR

| IC50 (Cytochrome P450 2D6) | Structure (SMILES) | EC50 [1] | EC50 (Ramos cells) |
| --- | --- | --- | --- |
| 3200 nM | O=C(/N=C(/Nc1cc(F)cc(Cl)c1)Nc1cc(C(F)(F)F)[nH]n1)c1cccc(Cl)c1 [Compound 1, 3-chloro-N-(((3-chloro-5-fluorophenyl)amino)((5-(trifluoromethyl)-1H-pyrazol-3-yl)amino)methylene)benzamide] | 59 ± 6 nM | 50 nM |
| 1100 nM | O=C(/N=C(/Nc1cccc(Cl)c1)Nc1cc(C(F)(F)F)[nH]n1)c1cccc(Cl)c1 [Compound 2, 3-chloro-N-(((3-chlorophenyl)amino)((5-(trifluoromethyl)-1H-pyrazol-3-yl)amino)methylene)benzamide, reference compound] | – | 100 nM |
| – | O=C(/N=C(/Nc1cc(F)cc(Cl)c1)Nc1cc(C(F)F)[nH]n1)c1ccc(Cl)cc1 [Compound 3] | – | 1840 nM |
| – | O=C(/N=C(/Nc1cc(F)cc(Cl)c1)Nc1cc(C(F)(F)F)[nH]n1)c1ccc(Cl)cc1 [Compound 4] | – | 120 nM |
